Source: the NIST ThermoML archive (doi:10.1021/je049955d)

Key:
[1] = 298.15 K, Ring tensiometer
[2] = xn = mol fraction of the nth substance listed; details: 298.15 K, Ring tensiometer

OCCO [1,2-ethanediol]
Details | surface tension liquid-gas [mN/m]
[1] | 47.8

OCCO [1,2-ethanediol] + O
[2]
Details | surface tension liquid-gas [mN/m]
x1 = 0.008251 | 70.8
x1 = 0.01012 | 70.7
x1 = 0.01185 | 70.4
x1 = 0.01423 | 70.2
x1 = 0.01585 | 69.7
x1 = 0.01823 | 69.6
x1 = 0.02 | 69.4
x1 = 0.02198 | 69.2
x1 = 0.02488 | 68.8
x1 = 0.02992 | 68.2
x1 = 0.03542 | 67.7
x1 = 0.0401 | 67.3
x1 = 0.04519 | 66.6
x1 = 0.101 | 62.5
x1 = 0.2 | 57.9

CC(=O)CC(C)=O [2,4-pentanedione]
Details | surface tension liquid-gas [mN/m]
[1] | 30.9

CC(=O)CC(C)=O [2,4-pentanedione] + O
[2]
Details | surface tension liquid-gas [mN/m]
x1 = 0.000205 | 70.7
x1 = 0.000412 | 70.1
x1 = 0.00049 | 69.9
x1 = 0.000578 | 69.5
x1 = 0.000783 | 69.1
x1 = 0.001016 | 68.3
x1 = 0.001976 | 65.5
x1 = 0.004045 | 61.4
x1 = 0.004973 | 59.8
x1 = 0.006054 | 58.3
x1 = 0.008089 | 55.6
x1 = 0.0103 | 53.3

CCOCCOC(C)=O [2-ethoxyethyl ethanoate]
Details | surface tension liquid-gas [mN/m]
[1] | 28.7

CCOCCOC(C)=O [2-ethoxyethyl ethanoate] + O
[2]
Details | surface tension liquid-gas [mN/m]
x1 = 0.000101 | 70
x1 = 0.000178 | 68.9
x1 = 0.00019 | 68.4
x1 = 0.000221 | 67.9
x1 = 0.000407 | 66
x1 = 0.00046 | 65.6
x1 = 0.000582 | 64.5
x1 = 0.000777 | 63.5
x1 = 0.000958 | 62.4
x1 = 0.001352 | 60.3
x1 = 0.003046 | 55.2
x1 = 0.005086 | 51.2
x1 = 0.007004 | 48.6
x1 = 0.01091 | 44.7
x1 = 0.013 | 43.2
x1 = 0.01497 | 41.4

CCCCO [butan-1-ol]
Details | surface tension liquid-gas [mN/m]
[1] | 24.3

CCCCO [butan-1-ol] + O
[2]
Details | surface tension liquid-gas [mN/m]
x1 = 0.000138 | 69.4
x1 = 0.000235 | 68.8
x1 = 0.000292 | 68.1
x1 = 0.000392 | 66.9
x1 = 0.000596 | 64.4
x1 = 0.000778 | 62.5
x1 = 0.001004 | 60.4
x1 = 0.001457 | 56.5
x1 = 0.001997 | 53.9
x1 = 0.002872 | 49.2
x1 = 0.003931 | 45.8
x1 = 0.006003 | 40.7
x1 = 0.006847 | 38.3
x1 = 0.008156 | 36.4
x1 = 0.01013 | 33.7
x1 = 0.01204 | 31.1
x1 = 0.01288 | 29.9
x1 = 0.01411 | 29.1

CCC(C)O (stereo unspecified) [butan-2-ol]
Details | surface tension liquid-gas [mN/m]
[1] | 23.3

CCC(C)O (stereo unspecified) [butan-2-ol] + O
[2]
Details | surface tension liquid-gas [mN/m]
x1 = 0.000154 | 70.2
x1 = 0.000211 | 69.7
x1 = 0.000443 | 67.3
x1 = 0.000718 | 64.8
x1 = 0.001 | 62.6
x1 = 0.001994 | 57.5
x1 = 0.003914 | 50.9
x1 = 0.005882 | 46.4
x1 = 0.00799 | 43.1
x1 = 0.009938 | 40.6
x1 = 0.01199 | 38.5
x1 = 0.01394 | 36.8

CCC(C)=O [butanone]
Details | surface tension liquid-gas [mN/m]
[1] | 24.2

CCC(C)=O [butanone] + O
[2]
Details | surface tension liquid-gas [mN/m]
x1 = 5.71e-05 | 71.8
x1 = 7.54e-05 | 71.7
x1 = 8.96e-05 | 71.5
x1 = 0.000112 | 71.3
x1 = 0.000296 | 70
x1 = 0.000522 | 68.9
x1 = 0.000741 | 67.8
x1 = 0.000855 | 67.3
x1 = 0.000997 | 66.8
x1 = 0.002056 | 63.1
x1 = 0.00405 | 58.6
x1 = 0.006112 | 55.1
x1 = 0.008019 | 52.7
x1 = 0.01022 | 50.4
x1 = 0.01205 | 48.8
x1 = 0.01413 | 47.4

OC1CCCC1 [cyclopentanol]
Details | surface tension liquid-gas [mN/m]
[1] | 32.8

OC1CCCC1 [cyclopentanol] + O
[2]
Details | surface tension liquid-gas [mN/m]
x1 = 0.000201 | 70.8
x1 = 0.000369 | 69.6
x1 = 0.000525 | 68.5
x1 = 0.000574 | 68
x1 = 0.000713 | 67.3
x1 = 0.000986 | 65.1
x1 = 0.001816 | 60.2
x1 = 0.002519 | 57.5
x1 = 0.002728 | 56.3
x1 = 0.003934 | 52.6
x1 = 0.005255 | 49.6
x1 = 0.005987 | 48.3
x1 = 0.008154 | 44.8
x1 = 0.01025 | 42.4
x1 = 0.01189 | 40.6
x1 = 0.01448 | 38.4

O=C1CCCC1 [cyclopentanone]
Details | surface tension liquid-gas [mN/m]
[1] | 33

O=C1CCCC1 [cyclopentanone] + O
[2]
Details | surface tension liquid-gas [mN/m]
x1 = 0.000186 | 71.1
x1 = 0.000367 | 70.3
x1 = 0.000559 | 69.6
x1 = 0.000768 | 68.9
x1 = 0.000966 | 68.3
x1 = 0.001362 | 67
x1 = 0.002445 | 63.6
x1 = 0.003863 | 61.1
x1 = 0.006022 | 57.8
x1 = 0.007908 | 55.5
x1 = 0.009964 | 53.7
x1 = 0.01215 | 52
x1 = 0.01428 | 50.3

CCOC(C)=O [ethyl acetate]
Details | surface tension liquid-gas [mN/m]
[1] | 23.7

CCOC(C)=O [ethyl acetate] + O
[2]
Details | surface tension liquid-gas [mN/m]
x1 = 0.000189 | 69.6
x1 = 0.000351 | 67.7
x1 = 0.000617 | 65.2
x1 = 0.000819 | 63.7
x1 = 0.000997 | 62.3
x1 = 0.002074 | 57.3
x1 = 0.003938 | 51.2
x1 = 0.006035 | 46.7
x1 = 0.008035 | 43.4
x1 = 0.009946 | 40.5
x1 = 0.01195 | 37.8
x1 = 0.01401 | 35.2

COC(=O)CC(C)=O [methyl 3-oxobutanoate]
Details | surface tension liquid-gas [mN/m]
[1] | 35.7

COC(=O)CC(C)=O [methyl 3-oxobutanoate] + O
[2]
Details | surface tension liquid-gas [mN/m]
x1 = 0.000186 | 71.1
x1 = 0.000411 | 70.4
x1 = 0.000609 | 69.9
x1 = 0.000793 | 69.3
x1 = 0.001003 | 68.6
x1 = 0.001822 | 66.6
x1 = 0.003971 | 62.4
x1 = 0.005842 | 60.2
x1 = 0.008086 | 57.8
x1 = 0.00996 | 56.1
x1 = 0.01206 | 54.5
x1 = 0.01404 | 53.2

CCC#N [propanenitrile]
Details | surface tension liquid-gas [mN/m]
[1] | 26.9

CCC#N [propanenitrile] + O
[2]
Details | surface tension liquid-gas [mN/m]
x1 = 0.000183 | 71.6
x1 = 0.000368 | 71
x1 = 0.000563 | 70.3
x1 = 0.000784 | 69.5
x1 = 0.000963 | 69.2
x1 = 0.001988 | 66.6
x1 = 0.003895 | 62.9
x1 = 0.005968 | 59.5
x1 = 0.008178 | 56.6
x1 = 0.01015 | 54.2
x1 = 0.012 | 52.4
x1 = 0.01434 | 49.9

O [water]
Details | surface tension liquid-gas [mN/m]
[1] | 71.95
